Reference: patent publication US20090312349A1, “ANTI-INFLAMMATORY MEDICAMENTS” (priority 2004, published 2009)

Each compound was assayed against T1, phospho p-38 alpha kinase (Homo sapiens, UniProt Q16539) (assay: P-38 alpha kinase assay (spectrophotometric, pyruvate kinase/lactate dehydrogenase coupled)). Details: Table 3; rates at […] to 2 h; read-out: IC50.
T1 construct: purchased Panvera
Assay type: biochemical
Protocol: In this assay, the oxidation of NADH was continuously measured spectrophometrically. […] The reaction was initiated by adding ATP. The absorption at 340 nm was monitored continuously for up to 4 hours at 30° C. on Polarstar Optima plate reader (BMG). The kinase activity (reaction rate) was calculated from the slope at the time frame from 1.5 h to 2 h.
For inhibition determinations, test compounds were incubated with the reaction mixture for ˜5 min before adding ATP to start the reaction. […] IC50 values were calculated from a series of % inhibition values determined at a range of concentrations of each inhibitor using Prism to process the data and fit inhibition curves. Generally, the rates obtained at the time frame of 1.5 h to 2 h were used for these calculations.

T1 sequence (Q16539 whole entry): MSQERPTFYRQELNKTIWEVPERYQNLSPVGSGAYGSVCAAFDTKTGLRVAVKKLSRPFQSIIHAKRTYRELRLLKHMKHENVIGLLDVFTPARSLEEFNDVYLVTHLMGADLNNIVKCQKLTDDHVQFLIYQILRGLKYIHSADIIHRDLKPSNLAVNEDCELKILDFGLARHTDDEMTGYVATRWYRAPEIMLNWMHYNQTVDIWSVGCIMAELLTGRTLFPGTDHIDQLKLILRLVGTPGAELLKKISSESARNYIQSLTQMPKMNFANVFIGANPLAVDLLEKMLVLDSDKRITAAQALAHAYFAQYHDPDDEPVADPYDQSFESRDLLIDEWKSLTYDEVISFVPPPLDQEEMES

Q: Which IC50 does the source give for `COc1cccc(-n2nc(C(C)(C)C)cc2NC(=O)Nc2ccc(F)cc2)c1` [Example 206, 1-(3-t-butyl-1-(3-methoxyphenyl)-1H-pyrazol-5-yl)-3-(4-fluorophenyl)urea] here?
A: 0.013 µM

Q: `CC(C)(C)c1cc(NC(=O)Nc2cccc(F)c2F)n(-c2ccc(CC(=O)O)cc2)n1` [Example 204, 2-(4-(3-t-butyl-5-(3-(2,3-difluorophenyl)ureido)-1H-pyrazol-1-yl)-phenyl)acetic acid] was tested. Which IC50 did it give?
A: 0.008 µM

Same assay, conditions: Table 5; @ 0.1 uM

Q: `CC(C)(C)c1cc(NC(=O)Nc2ccc(Cl)cc2)n(-c2cccc(CC(=O)O)c2)n1` [Example 399, 2-(3-{3-t-butyl-5-[3-(4-chlorophenyl)ureido]-1H-pyrazol-1-yl-}phenyl)acetic acid] was tested. Which “% @ concentration, uM” value did it give?
A: 21%

Q: For `CC(C)(C)c1cc(NC(=O)Nc2cccc3ccccc23)n(-c2ccc(O)cc2)n1` [Example 415, 1-(3-t-butyl-1-(4-hydroxyphenyl)-1H-pyrazol-5-yl)-3-(naphthalen-1-yl)urea], which “% @ concentration, uM” value is on record?
A: 28%

Q: Which “% @ concentration, uM” value does the source give for `Cc1cc(NC(=O)Nc2cccc(Cl)c2Cl)n(-c2ccc(CO)cc2)n1` [Example 347, 1-(2,3-dichlorophenyl)-3-{1-[4-(hydroxymethyl)phenyl]-3-methyl-1H pyrazol-5-yl}urea] here?
A: 8%

Q: For `CC(C)(C)c1cc(NC(=O)Nc2ccc(Cl)cc2)n(-c2cccc(Cn3c(=O)[nH]n(-c4ccccc4)c3=O)c2)n1` [Example 392, 1-(3-t-butyl-1-{3-[(3,5-dioxo-1-phenyl-1,2,4-triazolidin-4-yl)methyl]phenyl}-1H-pyrazol-5-yl)-3-(4-chlorophenyl)urea], which “% @ concentration, uM” value is on record?
A: 75%

Q: How did the “% @ concentration, uM” value turn out when `Cc1cc(NC(=O)Nc2cccc3ccccc23)n(-c2ccc(C(O)C(F)(F)F)cc2)n1` (stereo not drawn) [Example 348, 1-{3-methyl-1-[4-(2,2,2-trifluoro-1-hydroxyethyl)phenyl]-1H-pyrazol-5-yl}-3-(naphthalen-1-yl)urea] was run?
A: 17%

Same assay, conditions: Table 5; @ 1 uM

Q: `CC(C)(C)c1cc(NC(=O)Nc2ccc(Cl)cc2)n(-c2cccc(CC(=O)O)c2)n1` [Example 399, 2-(3-{3-t-butyl-5-[3-(4-chlorophenyl)ureido]-1H-pyrazol-1-yl-}phenyl)acetic acid] was tested. Which “% @ concentration, uM” value did it give?
A: 74%

Q: How did the “% @ concentration, uM” value turn out when `CC(C)(C)c1cc(NC(=O)Nc2cccc3ccccc23)n(-c2ccc(O)cc2)n1` [Example 415, 1-(3-t-butyl-1-(4-hydroxyphenyl)-1H-pyrazol-5-yl)-3-(naphthalen-1-yl)urea] was run?
A: 69%

Q: `Cc1cc(NC(=O)Nc2cccc(Cl)c2Cl)n(-c2ccc(CO)cc2)n1` [Example 347, 1-(2,3-dichlorophenyl)-3-{1-[4-(hydroxymethyl)phenyl]-3-methyl-1H pyrazol-5-yl}urea] was tested. Which “% @ concentration, uM” value did it give?
A: 31%

Q: For `CC(Cc1cccc(-n2nc(C(C)(C)C)cc2NC(=O)Nc2cccc(Cl)c2Cl)c1)C(=O)O` (stereo not drawn) [Example 323, 3-(3-{3-t-butyl-5-[3-(2,3-dichlorophenyl)ureido]-1H-pyrazol-1-yl}-1-phenyl)-2-methylpropanoic acid], which “% @ concentration, uM” value is on record?
A: 9%

Q: Which “% @ concentration, uM” value does the source give for `CC(C)(C)c1cc(NC(=O)Nc2ccc(Cl)cc2)n(-c2cccc(Cn3c(=O)[nH]n(-c4ccccc4)c3=O)c2)n1` [Example 392, 1-(3-t-butyl-1-{3-[(3,5-dioxo-1-phenyl-1,2,4-triazolidin-4-yl)methyl]phenyl}-1H-pyrazol-5-yl)-3-(4-chlorophenyl)urea] here?
A: 86%

Q: How did the “% @ concentration, uM” value turn out when `Cc1cc(NC(=O)Nc2cccc3ccccc23)n(-c2ccc(C(O)C(F)(F)F)cc2)n1` (stereo not drawn) [Example 348, 1-{3-methyl-1-[4-(2,2,2-trifluoro-1-hydroxyethyl)phenyl]-1H-pyrazol-5-yl}-3-(naphthalen-1-yl)urea] was run?
A: 47%

Same assay, conditions: Table 5; @ 10 uM

Q: For `O=C(Nc1ccc(Cl)cc1)Nc1cc(-c2ccccc2)nn1-c1ccc(CO)cc1` [Example 331, 1-(4-chlorophenyl)-3-{1-[4-(hydroxymethyl)phenyl]-3-phenyl-1H-pyrazol-5-yl}-urea], which “% @ concentration, uM” value is on record?
A: 71% @ 10

Q: With `CCOC(=O)c1cccc(-n2nc(-c3ccccc3)cc2NC(=O)Nc2cccc3ccccc23)c1` [Example 328, ethyl 3-[5-(3-naphthalen-1-yl-ureido)-3-phenyl-pyrazol-1-yl]benzoate] as the compound, how does the “% @ concentration, uM” value read?
A: 68% @ 10

Q: For `CC(C)(C)c1cc(NC(=O)Nc2cccc3ccccc23)n(-c2cccc(CO)c2)n1` [Example 367, 1-{3-t-butyl-1-[3-(hydroxymethyl)phenyl]-1H-pyrazol-5-yl)-3-(naphthalen-1-yl)-urea], which “% @ concentration, uM” value is on record?
A: 85% @ 10

Q: `CCOC(=O)C(C)Cc1ccc(-n2nc(C(C)(C)C)cc2NC(=O)Nc2ccc(Cl)cc2)cc1` (stereo not drawn) [Example 326, ethyl 3-(4-{3-t-butyl-5-[3-(4-chlorophenyl)ureido]-1H-pyrazol-1-yl}phenyl)-2-methylpropanoate] was tested. Which “% @ concentration, uM” value did it give?
A: 41% @ 10

Q: With `CC(C)(C)c1cc(NC(=O)Nc2cccc(F)c2F)n(-c2ccc(CO)cc2)n1` [Example 315, 1-{3-t-butyl-1-[4-(hydroxymethyl)phenyl]-1H-pyrazol-5-yl}-3-(2,3-difluoro-phenyl)urea] as the compound, how does the “% @ concentration, uM” value read?
A: 54% @ 10

Q: `CC(Cc1cccc(-n2nc(C(C)(C)C)cc2NC(=O)Nc2cccc(Cl)c2Cl)c1)C(=O)O` (stereo not drawn) [Example 323, 3-(3-{3-t-butyl-5-[3-(2,3-dichlorophenyl)ureido]-1H-pyrazol-1-yl}-1-phenyl)-2-methylpropanoic acid] was tested. Which “% @ concentration, uM” value did it give?
A: 51%

Same assay, conditions: Table 5; assay not named; read-out: uM

Q: Which IC50 does the source give for `CN1CCN(C(=O)NCc2cccc(-n3nc(C(C)(C)C)cc3NC(=O)Nc3cccc4ccccc34)c2)CC1` [Example 389, 1-{3-t-butyl-1-(3-[(1-methylpiperazine-4-carboxamido)methyl]phenyl}-1H-pyrazol-5-yl)-3-(naphthalen 1-yl)urea] here?
A: 0.09 µM

Q: How did the IC50 turn out when `CC(C)c1cc(NC(=O)Nc2cccc3ccccc23)n(-c2cccc(C(C)(C)O)c2)n1` [Example 333, 1-{1-[3-(2-hydroxypropan-2-yl)phenyl]-3-isopropyl-1H-pyrazol-5-yl}-3-(naphthalen-1-yl)urea] was run?
A: 2.44 µM

Q: Which IC50 does the source give for `CC(C)(C)c1cc(NC(=O)Nc2cccc3ccccc23)n(-c2ccc(CO)cc2)n1` [Example 358, 1-{3-t-butyl-1-[4-(hydroxymethyl)phenyl]-1H-pyrazol-5-yl}-3-(naphthalen-1-yl)urea] here?
A: 0.1 µM

Q: Which IC50 does the source give for `CCOC(=O)c1ccc(-n2nc(C(C)C)cc2NC(=O)Nc2ccc(Cl)cc2)cc1` [Example 334, ethyl 4-{5-[3-(4-chlorophenyl)ureido]-3-isopropyl-1H-pyrazol-1-yl}benzoate] here?
A: 2.2 µM

Q: For `CCOC(=O)c1ccc(-n2nc(C(C)(C)C)cc2NC(=O)Nc2cccc3ccccc23)cc1` [Example 357, ethyl 4-{3-t-butyl-5-[3-(naphthalen-1-yl)ureido]-1H-pyrazol-1-yl}benzoate], which IC50 is on record?
A: 0.13 µM

Q: For `COc1cccc(NC(=O)Nc2cc(-c3ccccc3)nn2-c2cccc(CO)c2)c1` [Example 355, 1-{3-phenyl-1-[3-(hydroxymethyl)phenyl]-1H-pyrazol-5-yl}-3-(3-methoxyphenyl)urea], which IC50 is on record?
A: 0.042 µM

Q: `CC(Cc1ccc(-n2nc(C(C)(C)C)cc2NC(=O)Nc2ccc(Cl)cc2)cc1)C(=O)O` (stereo not drawn) [Example 327, 3-(4-{3-t-butyl-5-[3-(4-chlorophenyl)ureido]-1H-pyrazol-1-yl}phenyl)-2-methylpropanoic acid] was tested. Which IC50 did it give?
A: 0.81 µM

Q: Which IC50 does the source give for `CC(C)(C)c1cc(N)n(-c2ccc(O)cc2)n1` [Example 420, 4-(3-t-butyl-5-amino-1H-pyrazol-1-yl)phenol] here?
A: 0.0147 µM

Q: With `CC(C)(C)c1cc(NC(=O)Nc2cccc(Cl)c2)n(-c2cccc(CO)c2)n1` [Example 303] as the compound, how does the IC50 read?
A: 0.089 µM

Q: With `CCOC(=O)Cc1ccc(-n2nc(C(C)(C)C)cc2NC(=O)Nc2ccc(Cl)cc2)cc1` [Example 317, ethyl 2-(4-{3-t-butyl-5-[3-(4-chlorophenyl)ureido]-1H-pyrazol-1-yl}phenyl)acetate] as the compound, how does the IC50 read?
A: 0.068 µM

Q: With `CC(C)(C)c1cc(NC(=O)Nc2cccc3ccccc23)n(-c2cccc(CN)c2)n1` [Example 307, 1-(3-t-butyl-1-(3-(aminomethyl)phenyl)-1H-pyrazol-5-yl)-3-(naphthalen-1-yl)urea] as the compound, how does the IC50 read?
A: 0.049 µM

Q: Which IC50 does the source give for `CC(C)(C)c1cc(NC(=O)Nc2cccc(Cl)c2Cl)n(-c2cccc(C(=O)O)c2)n1` [Example 374, 3-{3-t-butyl-5-[3-(2,3-dichlorophenyl)ureido]-1H-pyrazol-1-yl}benzoic acid] here?
A: 0.037 µM

Q: Which IC50 does the source give for `Cn1[nH]c(=O)n(Cc2cccc(-n3nc(C(C)(C)C)cc3NC(=O)Nc3cccc(Cl)c3Cl)c2)c1=O` [Example 408, 1-{5-t-butyl-2-[3-(1-methyl-3,5-dioxo-[1,2,4)triazolidin-4-ylmethyl)-phenyl]-2H-pyrazol-3-yl}-3-(2,3-dichloro-phenyl)-urea] here?
A: 0.116 µM

Q: For `CC(C)(C)c1cc(NC(=O)Nc2cccc3ccccc23)n(-c2ccc3c(c2)CNCC3)n1` [Example 406, 1-[3-t-butyl-1-(1,2,3,4-tetrahydroisoquinolin-7-yl)-1H-pyrazol-5-yl]-3-(naphthalen-1-yl)urea], which IC50 is on record?
A: 0.0134 µM

Q: Which IC50 does the source give for `CCOC(=O)c1cccc(-n2nc(C)cc2NC(=O)Nc2cccc(Cl)c2Cl)c1` [Example 342, ethyl 3-{5-[3-(2,3-dichlorophenyl)ureido]-3-methyl-1H-pyrazol-1-yl}benzoate] here?
A: 1 µM

Q: How did the IC50 turn out when `CNC(=O)Cc1cccc(-n2nc(C(C)(C)C)cc2NC(=O)Nc2cccc(Cl)c2Cl)c1` [Example 310] was run?
A: 0.13 µM

Q: With `CCOC(=O)Cc1cccc(-n2nc(C(C)(C)C)cc2NC(=O)Nc2ccc(Cl)cc2)c1` [Example 320, ethyl 2-(3-{3-t-butyl-5-[3-(4-chlorophenyl)ureido]-1H-pyrazol-1-yl}phenyl)acetate] as the compound, how does the IC50 read?
A: 0.79 µM

Q: How did the IC50 turn out when `O=C(Nc1cccc(Cl)c1Cl)Nc1cc(-c2cccs2)nn1-c1cccc(CO)c1` [Example 486, 1-(2,3-dichlorophenyl)-3-(1-(3-(hydroxymethyl)phenyl)-3-(thiophen-2-yl)-1H-pyrazol-5-yl)urea] was run?
A: 0.057 µM

Q: With `CCOC(=O)c1cccc(-n2nc(C(C)(C)C)cc2NC(=O)Nc2ccc(F)cc2)c1` [Example 393, ethyl 3-{3-t-butyl-5-[3-(4-fluorophenyl)ureido)-1H-pyrazol-1-yl}benzoate] as the compound, how does the IC50 read?
A: 0.4 µM

Q: `CC(C)(O)c1cccc(-n2nc(-c3ccccc3)cc2NC(=O)Nc2cccc3ccccc23)c1` [Example 329, 1-{1-[3-(2-hydroxypropan-2-yl)phenyl]-3-phenyl-1H-pyrazol-5-yl}-3-(naphthalen-1-yl)urea] was tested. Which IC50 did it give?
A: 0.25 µM

Q: For `CC(C)(C)c1cc(NC(=O)Nc2ccc(F)cc2)n(-c2cccc(Cn3c(=O)[nH]n(-c4ccccc4)c3=O)c2)n1` [Example 395, 1-{3-t-butyl-1-(3-[(3,5-dioxo-1-phenyl-1,2,4-triazolidin-4-yl)methyl]phenyl}-1H-pyrazol-5-yl)-3-(4-fluorophenyl)urea], which IC50 is on record?
A: 0.056 µM

Q: `CCOC(=O)c1cccc(-n2nc(C(C)C)cc2NC(=O)Nc2cccc3ccccc23)c1` [Example 332, ethyl 3-(3-isopropyl-5-[3-(naphthalen-1-yl)ureido]-1H-pyrazol-1-yl)benzoate] was tested. Which IC50 did it give?
A: 0.05 µM

Q: `CCOC(=O)Cc1cccc(-n2nc(C(C)(C)C)cc2NC(=O)Nc2cccc(Cl)c2Cl)c1` [Example 321, ethyl 2-(3-{3-t-butyl-5-[3-(2,3-dichlorophenyl)ureido]-1H-pyrazol-1-yl}phenyl)acetate] was tested. Which IC50 did it give?
A: 0.52 µM
